Test in all cases: off-target screen panel
Assay type in all cases: binding

For one assay, the target named is T1, Adenosine A1 (Homo sapiens, UniProt P30542).
T1 construct: purchased Eurofins Panlabs Discovery Services (Taiwan)
Particulars: Human recombinant, [^3H]DPCPX.

The target in assay [1] is T2, Platelet Activating Factor (PAF) (Homo sapiens, UniProt P25105).
T2 construct: purchased Eurofins Panlabs Discovery Services (Taiwan)
As to conditions: Human platelets, [^3H]PAF.

The next assay has as its target T3, Cannabinoid CB1 (Homo sapiens, UniProt P21554).
T3 construct: purchased Eurofins Panlabs Discovery Services (Taiwan)
As to conditions: Human recombinant, [^3H]SR141716A.

The target of another assay is T4, Bradykinin B1 (Homo sapiens, UniProt P46663).
T4 construct: purchased Eurofins Panlabs Discovery Services (Taiwan)
T4 sequence (P46663 whole entry): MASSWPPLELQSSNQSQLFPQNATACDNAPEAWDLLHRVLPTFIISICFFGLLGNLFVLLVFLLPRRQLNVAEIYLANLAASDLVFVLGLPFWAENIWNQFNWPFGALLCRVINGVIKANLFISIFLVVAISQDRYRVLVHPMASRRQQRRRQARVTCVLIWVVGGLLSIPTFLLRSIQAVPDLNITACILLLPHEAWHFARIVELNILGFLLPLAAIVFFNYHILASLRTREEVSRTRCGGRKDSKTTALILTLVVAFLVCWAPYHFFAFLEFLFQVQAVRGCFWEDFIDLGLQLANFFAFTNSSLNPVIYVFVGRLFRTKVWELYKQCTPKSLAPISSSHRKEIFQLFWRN
Particulars: Human IMR-90 cells, [^3H](Des-Arg^10)-Kallidin.

The next assay concerns the target T5, Dopamine D1 (Homo sapiens, UniProt P21728).
T5 construct: purchased Eurofins Panlabs Discovery Services (Taiwan)
As to conditions: Human recombinant, [^3H]SCH-23390.

For another assay, the target named is T6, Dopamine D2S (Homo sapiens, UniProt P14416).
T6 construct: purchased Eurofins Panlabs Discovery Services (Taiwan)
T6 sequence (P14416 1-414 isoform P14416-2): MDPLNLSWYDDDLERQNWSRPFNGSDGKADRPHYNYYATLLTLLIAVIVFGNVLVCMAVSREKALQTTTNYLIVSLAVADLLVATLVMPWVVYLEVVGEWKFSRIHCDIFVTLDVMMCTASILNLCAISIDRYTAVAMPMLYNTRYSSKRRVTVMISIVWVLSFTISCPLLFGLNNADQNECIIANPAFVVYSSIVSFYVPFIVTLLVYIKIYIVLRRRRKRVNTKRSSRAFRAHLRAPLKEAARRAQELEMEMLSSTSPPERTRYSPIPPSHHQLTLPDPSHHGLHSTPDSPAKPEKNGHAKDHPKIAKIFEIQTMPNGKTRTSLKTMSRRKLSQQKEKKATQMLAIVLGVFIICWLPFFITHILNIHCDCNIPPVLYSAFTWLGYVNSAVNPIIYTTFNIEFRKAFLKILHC
Particulars: Human recombinant, [^3H]Spiperone.

The next assay deals with T7, Adrenergic β2 (Homo sapiens, UniProt P07550).
T7 construct: purchased Eurofins Panlabs Discovery Services (Taiwan)
T7 sequence (P07550 whole entry): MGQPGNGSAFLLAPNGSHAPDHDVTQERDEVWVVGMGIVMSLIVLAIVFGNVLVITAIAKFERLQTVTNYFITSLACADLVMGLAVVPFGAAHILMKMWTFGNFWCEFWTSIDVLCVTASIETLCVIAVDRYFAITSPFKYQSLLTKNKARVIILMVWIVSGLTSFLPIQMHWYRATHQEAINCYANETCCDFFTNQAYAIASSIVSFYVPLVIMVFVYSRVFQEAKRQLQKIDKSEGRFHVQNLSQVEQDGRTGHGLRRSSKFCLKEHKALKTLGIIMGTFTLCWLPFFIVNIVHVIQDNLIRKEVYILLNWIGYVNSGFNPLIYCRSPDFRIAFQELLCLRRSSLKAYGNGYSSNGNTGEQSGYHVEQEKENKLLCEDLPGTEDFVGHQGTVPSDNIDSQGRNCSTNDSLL
Particulars: Human recombinant, [^3H]CGP-12177.

A further assay has as its target T8, Neuropeptide Y Y2 (Homo sapiens, UniProt P49146).
T8 construct: purchased Eurofins Panlabs Discovery Services (Taiwan)
Particulars: Human KAN-TS cells, [^125I]Peptide YY.

Another assay deals with T9, Sigma σ1 (Homo sapiens, UniProt Q99720).
T9 construct: purchased Eurofins Panlabs Discovery Services (Taiwan)
T9 sequence (Q99720 whole entry): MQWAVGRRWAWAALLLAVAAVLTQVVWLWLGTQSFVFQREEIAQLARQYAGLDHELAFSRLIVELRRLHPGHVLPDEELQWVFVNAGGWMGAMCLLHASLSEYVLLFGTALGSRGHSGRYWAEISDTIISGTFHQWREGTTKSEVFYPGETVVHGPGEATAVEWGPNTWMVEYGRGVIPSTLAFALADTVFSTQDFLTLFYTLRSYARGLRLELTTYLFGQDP
As to conditions: Human Jurkat cells, [^3H]Haloperidol.

A further assay addresses T10, Opiate δ1 (OP1, DOP) (Homo sapiens, UniProt P41143).
T10 construct: purchased Eurofins Panlabs Discovery Services (Taiwan)
As to conditions: Human recombinant, [^3H]Naltrindole.

The target of another assay is T11, Estrogen ERα (Homo sapiens, UniProt P03372).
T11 construct: purchased Eurofins Panlabs Discovery Services (Taiwan)
T11 sequence (P03372 whole entry): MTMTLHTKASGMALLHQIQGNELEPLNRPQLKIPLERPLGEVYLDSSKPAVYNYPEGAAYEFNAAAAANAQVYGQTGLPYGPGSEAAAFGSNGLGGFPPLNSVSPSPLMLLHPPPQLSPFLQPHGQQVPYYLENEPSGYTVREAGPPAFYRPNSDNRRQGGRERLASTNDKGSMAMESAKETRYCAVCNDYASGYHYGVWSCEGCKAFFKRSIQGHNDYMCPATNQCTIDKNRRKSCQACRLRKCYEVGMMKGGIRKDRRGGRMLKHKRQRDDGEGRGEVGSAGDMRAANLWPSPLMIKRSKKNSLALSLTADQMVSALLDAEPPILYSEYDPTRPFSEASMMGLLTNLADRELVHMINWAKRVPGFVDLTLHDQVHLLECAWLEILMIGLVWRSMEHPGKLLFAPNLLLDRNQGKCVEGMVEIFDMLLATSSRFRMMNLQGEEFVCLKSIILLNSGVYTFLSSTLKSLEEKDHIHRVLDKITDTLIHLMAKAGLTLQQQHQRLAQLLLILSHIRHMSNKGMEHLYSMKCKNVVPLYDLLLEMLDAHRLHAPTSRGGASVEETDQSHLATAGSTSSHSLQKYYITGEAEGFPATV
As to conditions: Human recombinant, [^3H]Estradiol.

The next assay addresses T12, Adrenergic α2A (Homo sapiens, UniProt P08913).
T12 construct: purchased Eurofins Panlabs Discovery Services (Taiwan)
Particulars: Human recombinant, [^3H]Rauwolscine.

From publication PMC8426238, “Synthesis and preclinical evaluation of [^11C]MTP38 as a novel PET ligand for phosphodiesterase 7 in the brain” (European Journal of Nuclear Medicine and Molecular Imaging, 2021) come the findings set out here.

T3 sequence (P21554 whole entry): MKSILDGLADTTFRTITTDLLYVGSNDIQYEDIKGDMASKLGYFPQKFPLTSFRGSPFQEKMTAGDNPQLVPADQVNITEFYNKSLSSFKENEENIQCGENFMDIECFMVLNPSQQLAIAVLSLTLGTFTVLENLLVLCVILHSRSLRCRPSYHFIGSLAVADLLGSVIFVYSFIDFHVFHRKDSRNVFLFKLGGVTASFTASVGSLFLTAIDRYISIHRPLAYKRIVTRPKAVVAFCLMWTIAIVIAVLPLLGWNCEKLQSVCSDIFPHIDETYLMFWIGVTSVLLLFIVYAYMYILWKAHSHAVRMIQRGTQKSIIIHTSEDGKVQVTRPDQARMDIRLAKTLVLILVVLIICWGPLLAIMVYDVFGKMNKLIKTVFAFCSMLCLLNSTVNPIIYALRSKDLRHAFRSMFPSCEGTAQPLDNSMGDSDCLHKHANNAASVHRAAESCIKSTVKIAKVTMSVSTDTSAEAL
T5 sequence (P21728 whole entry): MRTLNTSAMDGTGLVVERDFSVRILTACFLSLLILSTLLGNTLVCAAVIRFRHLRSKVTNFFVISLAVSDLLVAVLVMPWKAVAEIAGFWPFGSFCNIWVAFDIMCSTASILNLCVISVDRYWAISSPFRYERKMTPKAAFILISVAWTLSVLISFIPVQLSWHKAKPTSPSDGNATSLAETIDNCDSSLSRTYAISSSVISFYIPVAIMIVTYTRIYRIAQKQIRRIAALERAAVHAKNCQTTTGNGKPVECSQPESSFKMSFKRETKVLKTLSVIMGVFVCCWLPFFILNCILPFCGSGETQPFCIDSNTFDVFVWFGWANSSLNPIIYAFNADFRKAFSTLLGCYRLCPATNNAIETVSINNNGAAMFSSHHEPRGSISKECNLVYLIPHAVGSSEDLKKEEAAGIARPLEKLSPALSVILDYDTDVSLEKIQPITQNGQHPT
T8 sequence (P49146 whole entry): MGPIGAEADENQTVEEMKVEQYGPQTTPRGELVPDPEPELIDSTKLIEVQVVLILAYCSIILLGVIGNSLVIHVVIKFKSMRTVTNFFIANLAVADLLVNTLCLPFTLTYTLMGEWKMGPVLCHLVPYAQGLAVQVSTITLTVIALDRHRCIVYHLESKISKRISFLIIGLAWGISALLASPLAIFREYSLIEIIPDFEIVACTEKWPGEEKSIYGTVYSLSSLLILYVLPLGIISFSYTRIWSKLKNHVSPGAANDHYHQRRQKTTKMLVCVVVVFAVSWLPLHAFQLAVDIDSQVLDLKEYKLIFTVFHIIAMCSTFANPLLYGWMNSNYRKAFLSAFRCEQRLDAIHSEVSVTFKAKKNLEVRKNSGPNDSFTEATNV
T1 sequence (P30542 whole entry): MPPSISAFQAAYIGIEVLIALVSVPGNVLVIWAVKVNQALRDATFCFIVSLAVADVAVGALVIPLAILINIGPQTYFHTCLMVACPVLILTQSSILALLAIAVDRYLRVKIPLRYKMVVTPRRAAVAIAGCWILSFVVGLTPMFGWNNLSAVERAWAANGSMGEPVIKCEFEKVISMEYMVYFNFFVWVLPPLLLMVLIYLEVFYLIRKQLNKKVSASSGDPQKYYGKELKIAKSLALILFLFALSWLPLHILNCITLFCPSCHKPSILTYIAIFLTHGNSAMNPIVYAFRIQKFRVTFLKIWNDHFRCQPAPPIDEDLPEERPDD
T12 sequence (P08913 whole entry): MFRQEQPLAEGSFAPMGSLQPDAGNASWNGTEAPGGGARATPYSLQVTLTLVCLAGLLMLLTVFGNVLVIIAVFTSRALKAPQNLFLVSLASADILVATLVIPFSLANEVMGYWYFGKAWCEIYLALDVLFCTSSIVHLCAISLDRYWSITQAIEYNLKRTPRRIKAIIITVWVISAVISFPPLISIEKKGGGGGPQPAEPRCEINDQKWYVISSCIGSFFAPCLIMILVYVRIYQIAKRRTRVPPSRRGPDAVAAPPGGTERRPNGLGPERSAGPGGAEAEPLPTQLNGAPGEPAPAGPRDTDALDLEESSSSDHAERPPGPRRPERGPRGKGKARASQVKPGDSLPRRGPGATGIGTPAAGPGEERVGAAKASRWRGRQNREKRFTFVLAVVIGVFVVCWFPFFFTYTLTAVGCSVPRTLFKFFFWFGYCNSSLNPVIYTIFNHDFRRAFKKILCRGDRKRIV
T10 sequence (P41143 whole entry): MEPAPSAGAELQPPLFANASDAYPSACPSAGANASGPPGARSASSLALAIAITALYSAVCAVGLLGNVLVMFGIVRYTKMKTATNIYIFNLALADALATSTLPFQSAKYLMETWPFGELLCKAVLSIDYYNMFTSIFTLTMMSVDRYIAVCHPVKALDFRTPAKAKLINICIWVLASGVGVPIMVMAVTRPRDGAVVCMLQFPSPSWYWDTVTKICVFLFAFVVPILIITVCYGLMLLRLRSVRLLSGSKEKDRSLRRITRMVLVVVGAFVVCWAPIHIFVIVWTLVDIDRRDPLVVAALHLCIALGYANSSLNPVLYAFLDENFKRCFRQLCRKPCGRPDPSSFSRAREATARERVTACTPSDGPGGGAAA
T2 sequence (P25105 whole entry): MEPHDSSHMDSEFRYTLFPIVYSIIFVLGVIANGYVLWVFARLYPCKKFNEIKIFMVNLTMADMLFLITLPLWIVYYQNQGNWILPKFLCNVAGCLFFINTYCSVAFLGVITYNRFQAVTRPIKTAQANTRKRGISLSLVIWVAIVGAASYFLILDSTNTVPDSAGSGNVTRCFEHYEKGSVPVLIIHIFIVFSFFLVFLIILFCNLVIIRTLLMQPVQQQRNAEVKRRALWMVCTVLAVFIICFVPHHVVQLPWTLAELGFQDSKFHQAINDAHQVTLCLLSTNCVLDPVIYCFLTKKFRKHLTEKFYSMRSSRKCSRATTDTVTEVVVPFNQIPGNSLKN

One may read the inhibition as the change of the read-out against control, counted positive when it falls. `C[C@@H]1CC[C@H](C)N(c2nnc3c(N)ncc(C#N)n23)C1` (relative stereo) [MTP38, 8-amino-3-(2S*,5R*-dimethyl-1-piperidyl)-[1,2,4]triazolo[4,3-a]pyrazine-5-carbonitrile]: the inhibition at 1 µM at Adenosine A1 is -12%; in assay [1], 4%; at Cannabinoid CB1, -6%; against Bradykinin B1 it was 9%; on Dopamine D1, -14%; on Dopamine D2S, 4%. For the same molecule, the inhibition at 1 µM was -14% at Adrenergic β2; 6% on Neuropeptide Y Y2; 6% on Sigma σ1; -4% at Opiate δ1 (OP1, DOP); -1% at Estrogen ERα; 4% at Adrenergic α2A.
